{
  "source": "patent US20230226036A1",
  "about": "“ARIMOCLOMOL FOR TREATING GAUCHER DISEASE” (ORPHAZYME A/S, priority 2020, published 2023)",
  "key": {"[1]": {"conditions": "background statement; cited from earlier work"}, "[2]": {"assay": "Plasma exposure (AUC0-8) estimated by population PK modelling in GD1/GD3 patients", "type": "in vivo, human", "conditions": "300, 600, 1200 mg/day t.i.d. oral (weight-adjusted), FIG. 1", "source_text": "All patients underwent an arimoclomol single-dose (100-mg single dose for the 300-mg/day treatment group, 200-mg single dose for the arimoclomol 600-mg/day treatment group, 400-mg single dose for the arimoclomol 1200-mg/day treatment group, or corresponding dose per kg for paediatric patients prior to the effective date of this protocol. Single dose pharmacokinetics (PK) was done with corresponding dose per kg for all patients randomised after the effective date of this protocol) pharmacokinetic (PK) evaluation at Visit 2 following randomization to confirm the suitability (in terms of target investigational medicinal product (AUC0-8—area under the curve [AUC] from time 0 to 8 hours [AUC0-8]) of the selected doses in the trial. Following the single dose, blood samples for PK analysis were collected at predose, and 0.5, 1, 2, 4, and 8 hours postdose. […] The corresponding data was evaluated by an independent assessor to verify the AUC0-8. […]\nIn the event that the AUC was above the target, or an unexpected profile which could potentially impact the safety of the patient was obtained, and the patient required a dose reduction, the patient was dispensed a reduced dose of IMP (blinded) at Visit 3. […] Additional blood samples for quantitative population PK analysis of arimoclomol were collected predose and at 0.5 hours postdose at Visit 5, and predose and 1.5 hours postdose at Visit 7. […]"}, "[3]": {"tested_on": "glycosylsphingosine (lyso-Gb1)", "assay": "Plasma glycosylsphingosine (lyso-Gb1), phase 2 trial in Gaucher disease", "type": "in vivo, human", "conditions": "after 6 months, statistical significance not achieved, FIG. 6", "experimental": "(§1) Eligible GD1 and GD3 patients were randomised into 4 groups on a 1:1:1:1 basis to receive arimoclomol 300 mg/day, arimoclomol 600 mg/day, arimoclomol 1200 mg/day, or placebo treatment (3 times daily [t.i.d] dosing).\n(§2) The exploratory biomarker endpoints, as measured in the blood, included: • Change* in plasma glucosylsphingosine (GlcSph) levels at 6 months and every 6 months until trial end. • Change* in haemoglobin, ferritin, and platelet levels at 6 months and every 6 months until trial end. • Change* in GBA enzyme activity (leukocytes) at 6 months and every 6 months until trial end. • Change* in serum macrophage inflammatory protein-1b (MIP-1P; cytokine for bone involvement) at 6 months and every 6 months until trial end.\n(§3) Secondary efficacy endpoints, including change in weight and height, change in liver size, change in spleen size, and change in biomarkers (blood and CSF) relative to baseline (where appropriate) were analysed using an ANCOVA model with treatment group (dose actually received at Visit 3 following possible dosing adjustment based on PK assessment at Visit 2, or placebo) and corresponding baseline value as covariate. For the biomarker analysis, appropriate data transformation was conducted before statistical analysis, if necessary."}, "haemoglobin": {"tested_on": "haemoglobin", "assay": "Haemoglobin in patients anaemic at baseline, phase 2 trial in Gaucher disease", "type": "in vivo, human", "conditions": "highest dose group (1200 mg/day), time-trend analysis p<0.05, FIG. 5", "experimental": "as §1, §2, §3"}, "liver size": {"tested_on": "liver size", "assay": "Liver size by ultrasound, phase 2 trial in Gaucher disease type 1 or 3", "type": "in vivo, human", "conditions": "6 months, 300/600/1200 mg/day, dose-trend effect p<0.05, FIG. 3", "experimental": "as §1\n(§4) The imaging efficacy endpoint consisted of the change in the size (centimetres) of the liver and spleen (assessed by ultrasound) at 6 months and bi-annually until trial end. Clinical GD severity endpoints (all patients): • Gaucher disease Type 1 Disease Severity Scoring System (GD1-DS3) • Modified Severity Scoring Tool (mSST)\nas §3"}, "Gaucher's disease type 1": {"tested_on": "Gaucher's disease type 1", "assay": "Clinical GD1 severity score (GD1-DS3), phase 2 trial in Gaucher disease", "type": "in vivo, human", "conditions": "6 months, statistical significance not achieved", "experimental": "as §4, with “Eligible GD1 and GD3 patients were randomised into 4 groups on a 1:1:1:1 basis to receive arimoclomol 300 mg/day, arimoclomol 600 mg/day, arimoclomol 1200 mg/day, or placebo treatment (3 times daily [t.i.d] dosing). The” for “The”"}, "[4]": {"tested_on": "serum chitotriosidase activity", "assay": "Serum chitotriosidase activity, phase 2 trial in Gaucher disease type 1 or 3 (primary endpoint)", "type": "in vivo, human", "conditions": "for Relative change in chitotriosidase activity from baseline versus placebo: 6 months, all dosage groups, significance not achieved (p=0.4), FIG. 2", "experimental": "This is a placebo-controlled, randomised, double-blinded trial evaluating the response of 3 dose levels of arimoclomol on various pharmacodynamic (PD) biomarkers in blood and cerebrospinal fluid (CSF) as indicators of enhanced glucocerebrosidase (GBA) enzyme activity in GD1 and GD3.\nas §1\nThe primary efficacy endpoint of the trial was the percentage change in serum chitotriosidase activity (marker of macrophage activation) from baseline to 6 months, where baseline was defined as the mean value of the predose visits (Visit 1 and Visit 2).\nThe primary efficacy endpoint was analysed using an Analysis of Covariance (ANCOVA) model on the ITT population. The log of chitotriosidase activity was used in the analysis. The response variable for ANCOVA model was the log of chitotriosidase activity at 6 months, and the independent variables included IMP dose as randomized (300 mg/day, 600 mg/day, 1200 mg/day, and 0 mg/day [for placebo]) as a continuous variable, GD type, and log of baseline chitotriosidase. Supportive analysis was conducted using the same model but with the dose actually received at Visit 3 following possible dosing adjustment based on PK assessment at Visit 2."}, "spleen size": {"tested_on": "spleen size", "assay": "Spleen size by ultrasound, phase 2 trial in Gaucher disease type 1 or 3", "type": "in vivo, human", "conditions": "6 months, 300/600/1200 mg/day, dose trend analysis p<0.10, FIG. 4", "experimental": "as §1, §4, §3"}},
  "note": "Entries after “also recorded” stand apart in the source; their conditions may differ.",
  "data": [
    {"molecule": "[O-][n+]1cccc(/C(Cl)=N/OC[C@H](O)CN2CCCCC2)c1", "note": "[arimoclomol, (+)-(R)—N-[2-hydroxy-3-(1-piperidinyl)-propoxy]-pyridine-1-oxide-3-carboximidoyl chloride]", "values": [
      {"measurement": "Blood-brain barrier passage", "setting": "[1]", "value": "ability to cross the blood-brain barrier"},
      {"measurement": "Plasma exposure (AUC)", "setting": "[2]", "value": "dose-dependent increase in plasma exposure"},
      {"measurement": "Change from baseline of plasma glycosylsphingosine (lyso-Gb1)", "setting": "[3]", "value": "trend towards a dose-dependent increase"},
      {"measurement": "Haemoglobin over time", "setting": "haemoglobin", "value": "time-dependent increase in haemoglobin"},
      {"measurement": "Liver size relative to placebo", "setting": "liver size", "value": "dose-dependent effect; also recorded: Clinically meaningful dose-dependent reductions"},
      {"measurement": "Clinical GD1 severity score", "setting": "Gaucher's disease type 1", "value": "directional dose-dependent reduction"},
      {"measurement": "Relative change in chitotriosidase activity from baseline versus placebo", "setting": "[4]", "value": "relative reduction in chitotriosidase activity from baseline"},
      {"measurement": "Relative change in chitotriosidase activity from baseline versus placebo", "setting": "[4]; listed as Arimoclomol", "value": "relative reduction in serum chitotriosidase activity"},
      {"measurement": "Change in chitotriosidase activity across treatment groups", "setting": "[4]; baseline to 6 months, 300/600/1200 mg/day vs. placebo", "value": "lower increase in arimoclomol groups vs. placebo"},
      {"measurement": "Spleen size relative to placebo", "setting": "spleen size", "value": "dose-dependent effect; also recorded: Clinically meaningful dose-dependent reductions"}
    ]}
  ]
}
